Among the data in patent publication US7888329B2, “Substituted aryl piperidinylalkynyladenosines as A2AR agonists” (PGxHealth, LLC, priority 2006, dated 2011) are Ki and EC50 values, retold here.

One experiment has as its target T1, human A1 AR (Homo sapiens, UniProt P30542).
T1 construct: expressed in transfected cells; membranes
T1 sequence (P30542 1-326): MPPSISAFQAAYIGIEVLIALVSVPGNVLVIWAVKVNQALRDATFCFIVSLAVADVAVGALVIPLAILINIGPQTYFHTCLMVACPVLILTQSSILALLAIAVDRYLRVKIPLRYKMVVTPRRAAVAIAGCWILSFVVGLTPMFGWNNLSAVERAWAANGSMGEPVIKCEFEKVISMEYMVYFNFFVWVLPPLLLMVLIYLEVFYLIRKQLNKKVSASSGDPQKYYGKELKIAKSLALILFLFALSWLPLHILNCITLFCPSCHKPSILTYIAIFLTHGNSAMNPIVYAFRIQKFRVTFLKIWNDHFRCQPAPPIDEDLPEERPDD
As to the kind of experiment: Radioligand competition binding with 125I-ABA, membranes of CHO K1 cells stably expressing the receptor. (In general: In a radioligand displacement assay an active substance lowers the binding of a labelled ligand.)

The target of a further experiment is T2, human A3 AR (Homo sapiens, UniProt P0DMS8).
T2 construct: expressed in transfected cells; membranes
T2 sequence (P0DMS8 1-318): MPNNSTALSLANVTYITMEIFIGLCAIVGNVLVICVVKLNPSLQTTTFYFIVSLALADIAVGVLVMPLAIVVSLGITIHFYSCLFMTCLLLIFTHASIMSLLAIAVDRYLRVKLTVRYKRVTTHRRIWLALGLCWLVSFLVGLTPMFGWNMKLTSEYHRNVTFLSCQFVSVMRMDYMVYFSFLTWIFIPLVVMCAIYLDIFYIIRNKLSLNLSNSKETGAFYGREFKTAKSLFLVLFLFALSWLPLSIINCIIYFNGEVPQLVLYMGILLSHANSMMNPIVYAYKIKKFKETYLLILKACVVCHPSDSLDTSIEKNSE
Nature of the experiment: Radioligand competition binding with 125I-ABA, membranes of HEK 293 cells stably expressing the receptor. The method, then: (§1) Cell culture and membrane preparation. Sf9 cells were cultured in Grace's medium supplemented with 10% fetal bovine serum, 2.5 μg/ml amphotericin B and 50 μg/ml gentamycin in an atmosphere of 50% N2/50% O2. Viral infection was performed at a density of 2.5×10^6 cells/mL with a multiplicity of infection of two for each virus used. Infected cells were harvested 3 days post-infection and washed twice in insect PBS (PBS pH 6.3). Cells were then resuspended in lysis buffer (20 mM HEPES pH 7.5, 150 mM NaCl, 3 mM MgCl2, 1 mM α-mercaptoethanol (BME), 5 μg/mL leupeptin, 5 μg/mL pepstatin A, 1 μg/mL aprotinin, and 0.1 mM PMSF) and snap frozen for storage at −80° C. Cells were thawed on ice, brought to 30 mL total volume in lysis buffer, and burst by N2 cavitation (600 psi for 20 minutes). A low-speed centrifugation was performed to remove any unlysed cells (1000×g for 10 minutes), followed by a high-speed centrifugation (17,000×g for 30 minutes). The pellet from the final centrifugation was homogenized in buffer containing 20 mM HEPES pH 8, 1100 mM NaCl, 1% glycerol, 2 μg/mL leupeptin, 2 μg/mL pepstatin A, 2 μg/mL Aprotinin, 0.1 mM PMSF, and 10 μM GDP using a small glass homogenizer followed by passage through a 26 gauge needle. Membranes were aliquoted, snap frozen in liquid N2, and stored at −80° C. Membranes from cells stably expressing the human A1 AR (CHO K1 cells) or A3 AR (HEK 293 cells) were prepared as described (Robeva et al., 1996).
Radioligand Binding Assays. Radioligand binding to recombinant human A2A receptors in Sf9 cell membranes was performed using either the radiolabeled agonist, ^125I-APE (Luthin et al., 1995) or the radiolabeled antagonist, ^125I-ZM241385 (^125I-ZM). To detect the high affinity, GTPγS-sensitive state of A1 and A3 AR, we used the agonist, ^125I-ABA (Linden et al., 1985; Linden et al., 1993). Binding experiments were performed in triplicate with 5 μg (A2A) or 25 μg (A1 and A3) membrane protein in a total volume of 00.1 mL HE buffer (20 mM HEPES and 1 mM EDTA) with 1 U/mL adenosine deaminase and 5 mM MgCl2 with or without 50 μM GTPγS. Membranes were incubated with radioligands at room temperature for three hours (for agonists) or two hours (for antagonists) in Millipore Multiscreen® 96-well GF/C filter plates and assays were terminated by rapid filtration on a cell harvester (Brandel, Gaithersburg, Md.) followed by 4×150 μl washes over 30 seconds with ice cold 10 mM Tris-HCl, pH 7.4, 10 mM MgCl2. Nonspecific binding was measured in the presence of 50 μM NECA. Competition binding assays were performed as described (Robeva et al., 1996) using 0.5-1 nM ^125I-APE, ^125I-ZM241385, or ^125I-ABA. […] The Ki values for competing compound binding to a single site were derived from IC50 values with correction for radioligand and competing compound depletion as described previously (Linden, 1982).

The test system of experiment [1] is Purified human neutrophils. Nature of the experiment: Luminol enhanced chemiluminescence (neutrophil oxidative activity), fMLP stimulated. Format: cell-based. To be noted: read-out: Functional. The source says: Chemiluminescence Methods: Luminol enhanced chemiluminescence, a measure of neutrophil oxidative activity, is dependent upon both superoxide production and mobilization of the granule enzyme myeloperoxidase. The light is emitted from unstable high-energy oxygen species such as hypochlorous acid and singlet oxygen generated by activated neutrophils.
Purified human neutrophils (2×10^6/ml) suspended in Hanks balanced salt solution containing 0.1% human serum albumin (HA), adenosine deaminase (1 U/mL) and rolipram (100 nM) were incubated (37 C) in a water bath for 15 min with or without rhTNF (10 U/ml). Following incubation 100 µL aliquots of the PMN were transferred to wells (White walled clear bottom 96 well tissue culture plates Costar #3670; 2 wells/condition) containing […] and luminol (final concentration 100M) with or without adenosine agonist (final agonist concentrations 0.01-1000 nM). The plate was incubated 5 min (37 C) and then fMLP (50 l in HA; final concentration […]) was added to all wells.
Peak chemiluminescence was determined with a Victor 1420 Multilabel Counter in the chemiluminescence mode using the Wallac Workstation software. Data are presented as peak chemiluminescence as percent of activity in the absence of an adenosine agonist. The EC50 was determined using PRISM software. All compounds were tested with PMNs from three separate donors.

Experiment [2] concerns the target T3, recombinant human A2A receptors (Homo sapiens, UniProt P29274).
T3 construct: expressed in transfected cells; host or cells: Sf9 insect cells infected with virus; membranes
As to the kind of experiment: Radioligand competition binding with 125I-APE or 125I-ZM241385, Sf9 cell membranes. The note with it: 125I-APE or 125I-ZM241385, Sf9 membranes. As to the method:
as §1, with “C.” for “C. Membranes from cells stably expressing the human A1 AR (CHO K1 cells) or A3 AR (HEK 293 cells) were prepared as described (Robeva et al., 1996).”
Radioligand Binding Assays. […] Binding experiments were performed in triplicate with 5 μg (A2A) or 25 μg (A1 and A3) membrane protein in a total volume of 00.1 mL HE buffer (20 mM HEPES and 1 mM EDTA) with 1 U/mL adenosine deaminase and 5 mM MgCl2 with or without 50 μM GTPγS. Membranes were incubated with radioligands at room temperature for three hours (for agonists) or two hours (for antagonists) in Millipore Multiscreen® 96-well GF/C filter plates and assays were terminated by rapid filtration on a cell harvester (Brandel, Gaithersburg, Md.) followed by 4×150 μl washes over 30 seconds with ice cold 10 mM Tris-HCl, pH 7.4, 10 mM MgCl2. Nonspecific binding was measured in the presence of 50 μM NECA.

The mark [3] stands for this setting: Ki derived from IC50, class symbols.

Read-outs that look alike come from different tables or passages of the source. Where only a bound is given, the exact number is not on record here.

T3 sequence (P29274 whole entry): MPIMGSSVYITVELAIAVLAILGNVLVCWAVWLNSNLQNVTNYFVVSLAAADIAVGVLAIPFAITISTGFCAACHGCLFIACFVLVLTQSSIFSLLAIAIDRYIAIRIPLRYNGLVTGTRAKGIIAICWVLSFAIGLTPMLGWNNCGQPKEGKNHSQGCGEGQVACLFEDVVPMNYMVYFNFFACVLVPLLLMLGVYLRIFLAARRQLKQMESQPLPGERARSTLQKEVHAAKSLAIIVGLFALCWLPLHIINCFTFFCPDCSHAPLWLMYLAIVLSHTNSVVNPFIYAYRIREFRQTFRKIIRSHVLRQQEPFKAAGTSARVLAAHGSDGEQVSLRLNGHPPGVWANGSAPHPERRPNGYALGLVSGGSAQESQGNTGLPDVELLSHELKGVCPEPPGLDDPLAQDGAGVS

`Nc1nc(C#CCC2CCN(C(=O)Oc3ccccc3)CC2)nc2c1ncn2[C@@H]1O[C@H](C(=O)NC2CC2)C(O)[C@@H]1O` (some centres unmarked) [Compound 1, N-Cyclopropyl 2-{3-[1-(phenyloxycarbonyl)-4-piperidinyl]-1-propyn-1-yl}adenosine-5′-uronamide, reference compound]: the Ki (in general, the equilibrium dissociation constant of an inhibitor or competing ligand from its target) at human A1 AR (Ki derived from IC50) is 34.7 nM; at human A3 AR (Ki derived from IC50), 34.1 nM; in experiment [2] (Ki derived from IC50) it was 0.563 nM. For the same molecule, the EC50 in experiment [1] (Homo sapiens, Neutrophil) was 0.56 nM.

Consider `CCNC(=O)[C@H]1O[C@@H](n2cnc3c(N)nc(C#CCC4CCN(C(=O)Oc5ccc(C)cc5)CC4)nc32)[C@@H](O)C1O` (some centres unmarked) [Compound 16, N-Ethyl 2-{3-[1-(4-methylphenoxycarbonyl)-4-piperidinyl]-1-propyn-1-yl}adenosine-5′-uronamide], for which the figures for the Ki (at human A1 AR (setting [3]); on human A3 AR (setting [3]); in experiment [2] (class symbols)) were less than 100 nM, less than 10 nM and less than 1 nM, respectively. Besides, the EC50 in experiment [1] (Homo sapiens, Neutrophil) was less than 1 nM.

In the case of `Nc1nc(C#CCC2CCN(C(=O)Oc3ccc(Br)cc3Br)CC2)nc2c1ncn2[C@@H]1O[C@H](C(=O)NC2CC2)C(O)[C@@H]1O` (some centres unmarked) [Compound 57, N-Cyclopropyl 2-{3-[1-(2,4-bromophenoxycarbonyl)-4-piperidinyl]-1-propyn-1-yl}adenosine-5′-uronamide], the Ki at human A1 AR (setting [3]) is less than 100 nM; on human A3 AR (setting [3]) it was less than 100 nM; in experiment [2] (class symbols) it was less than 1 nM. The EC50 in experiment [1] (Homo sapiens, Neutrophil) is less than 10 nM.

Turning to `Nc1nc(C#CCC2CCN(C(=O)Oc3ccccc3)CC2)nc2c1ncn2[C@@H]1O[C@H](CO)[C@@H](O)[C@H]1O` [Compound 4, 2-{3-[1-(Phenoxycarbonyl)piperidin-4-yl]propyn-1-yl}adenosine, reference compound], the Ki on human A1 AR (setting [3]) was less than 100 nM; at human A3 AR (setting [3]), less than 10 nM; in experiment [2] (class symbols), less than 1 nM. In addition, the EC50 in experiment [1] (Homo sapiens, Neutrophil) is less than 10 nM.

`Nc1nc(C#CCC2CCN(C(=O)Oc3cccc(C(F)(F)F)c3)CC2)nc2c1ncn2[C@@H]1O[C@H](CO)C(O)[C@@H]1O` (some centres unmarked) [Compound 6, 2-{3-[1-((3-Trifluoromethyl)phenoxycarbonyl)piperidin-4-yl]propyn-1-yl}adenosine]: the Ki was less than 100 nM at human A1 AR (setting [3]), less than 10 nM at human A3 AR (setting [3]) and less than 1 nM in experiment [2] (class symbols). In addition, the EC50 in experiment [1] (Homo sapiens, Neutrophil) is less than 10 nM.

As for `Nc1nc(C#CCC2CCN(C(=O)Oc3ccccc3Cl)CC2)nc2c1ncn2[C@@H]1O[C@H](C(=O)NC2CC2)C(O)[C@@H]1O` (some centres unmarked) [Compound 22, N-Cyclopropyl 2-{3-[1-(2-chlorophenyloxycarbonyl)-4-piperidinyl]-1-propyn-1-yl}adenosine-5′-uronamide], the Ki on human A1 AR (setting [3]) is less than 100 nM; on human A3 AR (setting [3]) it was greater than 100 nM; in experiment [2] (class symbols) it was less than 1 nM. Further, the EC50 in experiment [1] (Homo sapiens, Neutrophil) is less than 10 nM.

For `COc1ccc(OC(=O)N2CCC(CC#Cc3nc(N)c4ncn([C@@H]5O[C@H](CO)[C@@H](O)[C@H]5O)c4n3)CC2)cc1` [Compound 28, 2-{3-[1-((4-Methoxy)phenoxycarbanoyl)piperidin-4-yl]propyn-1-yl}adenosine], the inhibition constant Ki on human A1 AR (setting [3]) is less than 100 nM; at human A3 AR (setting [3]) it was less than 100 nM; in experiment [2] (class symbols) it was less than 1 nM. In addition, in experiment [1] (Homo sapiens, Neutrophil), the EC50 was less than 10 nM.

Turning to `Nc1nc(C#CCC2CCN(C(=O)Oc3cccc([N+](=O)[O-])c3)CC2)nc2c1ncn2[C@@H]1O[C@H](C(=O)NC2CC2)C(O)[C@@H]1O` (some centres unmarked) [Compound 56, N-Cyclopropyl 2-{3-[1-(3-nitrophenoxycarbonyl)-4-piperidinyl]-1-propyn-1-yl}adenosine-5′-uronamide], the values for the Ki (on human A1 AR (setting [3]); on human A3 AR (setting [3]); in experiment [2] (class symbols)) were less than 100 nM, greater than 100 nM and less than 1 nM, respectively. The EC50 in experiment [1] (Homo sapiens, Neutrophil) was less than 1 nM.

Consider `Nc1nc(C#CCC2CCN(C(=O)Oc3ccc(C(=O)O)cc3)CC2)nc2c1ncn2[C@@H]1O[C@H](C(=O)NC2CC2)C(O)[C@@H]1O` (some centres unmarked) [Compound 14, N-Cyclopropyl 2-{3-[1-(4-carboxyphenoxycarbonyl)-4-piperidinyl]-1-propyn-1-yl}adenosine-5′-uronamide], for which the Ki is greater than 100 nM on human A1 AR (setting [3]), greater than 100 nM on human A3 AR (setting [3]) and less than 10 nM in experiment [2] (class symbols). Besides, in experiment [1] (Homo sapiens, Neutrophil), the EC50 is less than 100 nM.

“N-Cyclopropyl 2-[3-[1-(4-nitrophenoxycarbonyl) 4-propylpiperidine]}-1-carboxylate]adenosine-5′-uronamide [Compound 40]” registered a Ki at human A3 AR (setting [3]) greater than 100 nM. Moreover, in experiment [1] (EC50 of peak chemiluminescence, human PMN, rolipram 100 nM, fMLP, three donors, class symbols), the EC50 was less than 100 nM.
